Source: the RepoRT retention time repository (doi:10.1007/s00216-021-03828-0)

Tests used:
Settings in all cases: stereoisomer not certain
[1] = RP, Merck Supelco Ascentis Express C18, 100 × 2.1 mm, 2 µm, 40 °C, 0.2 mL/min, estimated dead time 1.1 min; A: water + 0.1% formic acid, pH 3; B: acetonitrile + 0.1% formic acid, pH 3; gradient (min/%B) 0/5 2/5 17/99.9 20/99.9
[2] = as above; remark: listed apart in the source
[3] = RP, Merck Supelco Ascentis Express C18, 100 × 2.1 mm, 2 µm, 40 °C, 0.4 mL/min, estimated dead time 0.55 min; A: water + 0.1% formic acid, pH 3; B: acetonitrile + 0.1% formic acid, pH 3; gradient (min/%B) 0/5 2/5 17/99.9 20/99.9
[4] = RP, Merck Supelco Ascentis Express C18, 100 × 2.1 mm, 2 µm, 40 °C, 0.35 mL/min, estimated dead time 0.63 min; A: water + 0.1% formic acid, pH 3; B: acetonitrile + 0.1% formic acid, pH 3; gradient (min/%B) 0/5 2/5 17/99.9 20/99.9
[5] = RP, Merck Supelco Ascentis Express C18, 100 × 2.1 mm, 2 µm, 40 °C, 0.4 mL/min, estimated dead time 0.55 min; A: water + 0.1% formic acid, pH 3; B: acetonitrile + 0.1% formic acid, pH 3; gradient (min/%B) 0/5 2/5 17/99.9 20/99.9; remark: listed apart in the source
[6] = RP, Merck Supelco Ascentis Express C18, 100 × 2.1 mm, 2 µm, 40 °C, 0.25 mL/min, estimated dead time 0.88 min; A: water + 0.1% formic acid, pH 3; B: acetonitrile + 0.1% formic acid, pH 3; gradient (min/%B) 0/5 2/5 17/99.9 20/99.9
[7] = RP, Merck Supelco Ascentis Express C18, 100 × 2.1 mm, 2 µm, 39 °C, 0.3 mL/min, estimated dead time 0.73 min; A: water + 0.1% formic acid, pH 3; B: acetonitrile + 0.1% formic acid, pH 3; gradient (min/%B) 0/5 2/5 17/99.9 20/99.9

| Structure (SMILES) | LC retention time [1] [min] | LC retention time [2] [min] | LC retention time [3] [min] | LC retention time [4] [min] | LC retention time [5] [min] | LC retention time [6] [min] | LC retention time [7] [min] |
| --- | --- | --- | --- | --- | --- | --- | --- |
| CCC=CCC=CCC=CCC=CCC=CCCCC(=O)O [EICOSAPENTAENOATE] | 15.9 | 15.9 | 13.9 | 14.2 | 13.9 | 15.2 | 14.7 |
| CCC(C(=O)O)C(=O)O [ETHYLMALONATE] | 3.01 | 3.05 | 1.48 | 1.72 | 1.48 | 2.31 | 2.06 |
| COc1cc(C=CC(=O)O)ccc1O [FERULATE] | 6.33 | 6.32 | 4.85 | 5.07 | 4.81 | 5.78 | 5.39 |
| Nc1nc2ncc(CNc3ccc(C(=O)NC(CCC(=O)O)C(=O)O)cc3)nc2c(=O)[nH]1 (stereo not given) [FOLATE] | 4.66 | 4.69 | 3.58 | 3.76 | 3.58 | 4.27 | 3.99 |
| CCCCCCCCCCCCCC(=O)OCC(O)CO (stereo not given) [GLYCEROL-MYRISTATE] | 15.4 | 15.3 | 13.3 | 13.6 | 13.2 | 14.6 | 14 |
| CC(CCC(=O)NCC(=O)O)C1CCC2C3C(O)CC4CC(O)CCC4(C)C3CCC12C (stereo not given) [GLYCOCHENODEOXYCHOLATE] | 10.5 | 10.4 | 9.09 | 9.28 | 9.05 | 9.94 | 9.57 |
| CC(CCC(=O)NCC(=O)O)C1CCC2C3C(O)CC4CC(O)CCC4(C)C3CC(O)C12C (stereo not given) [GLYCOCHOLATE] | 9.22 | 9.2 | 8 | 8.17 | 7.96 | 8.75 | 8.42 |
| Nc1nc2nc[nH]c2c(=O)[nH]1 [GUANINE] | 1.37 | 1.36 | 0.663 | 0.757 | 0.693 | 1.09 | 0.883 |
| O=C(O)CNC(=O)c1ccccc1 [HIPPURATE] | 5.12 | 5.11 | 3.45 | 3.72 | 3.42 | 4.54 | 4.09 |
| O=C(O)Cc1cc(O)ccc1O [HOMOGENTISATE] | 2.38 | 2.48 | 1.22 | 1.35 | 1.16 | 1.92 | 1.64 |
| COc1cc(CC(=O)O)ccc1O [HOMOVANILLATE] | 5.43 | 5.42 | 3.96 | 4.18 | 3.93 | 4.9 | 4.5 |
| O=C(O)C(O)Cc1ccc(O)cc1 (stereo not given) [HYDROXYPHENYLLACTATE] | 5.43 | 5.42 | 3.96 | 4.18 | 3.93 | 4.9 | 4.5 |
| NC(=O)Cc1c[nH]c2ccccc12 [INDOLE-3-ACETAMIDE] | 5.84 | 5.83 | 4.27 | 4.51 | 4.23 | 5.28 | 4.85 |

Results, then the compound that gave them:

| LC retention time [1] [min] | LC retention time [2] [min] | LC retention time [3] [min] | LC retention time [4] [min] | LC retention time [5] [min] | LC retention time [6] [min] | LC retention time [7] [min] | Structure (SMILES) |
| --- | --- | --- | --- | --- | --- | --- | --- |
| 7.27 | 7.25 | 5.61 | 5.95 | 4.78 | 6.66 | 6.22 | OCCc1c[nH]c2ccccc12 [INDOLE-3-ETHANOL] |
| 7.11 | 7 | 5.52 | 5.84 | 5.58 | 6.47 | 6.08 | O=C(O)C(=O)Cc1c[nH]c2ccccc12 [INDOLE-3-PYRUVATE] |
| 4.21 | 4.97 | 2.15 | 2.45 | 2.17 | 4.45 | 4.07 | O=CCc1c[nH]c2ccccc12 [INDOLEACETALDEHYDE] |
| 1.37 | 1.39 | 0.703 | 0.76 | 0.663 | 1.12 | 0.943 | O=c1[nH]cnc2c1ncn2C1OC(CO)C(O)C1O (stereo not given) [INOSINE] |
| 1.43 | 1.45 | 0.697 | 0.793 | 0.717 | 1.14 | 0.93 | CCC(C)C(N)C(=O)O (stereo not given) [ISOLEUCINE] |
| 4.53 | 4.52 | 2.97 | 3.24 | 2.93 | 4 | 3.64 | O=C(O)c1cc(=O)c2ccccc2[nH]1 [KYNURENATE] |
| 2.97 | 3.02 | 1.56 | 1.78 | 1.53 | 2.41 | 2.02 | NC(=O)[C@@H](N)Cc1c[nH]c2ccccc12 [L-TRYPTOPHANAMIDE] |
| 14.7 | 14.7 | 12.6 | 12.9 | 12.5 | 13.9 | 13.3 | CCCCCCCCCCCC(=O)O [LAURATE] |
| 10.7 | 10.8 | 9.29 | 9.5 | 9.25 | 10.2 | 9.71 | CCCCCCCCCCCC(=O)OC(CC(=O)[O-])C[N+](C)(C)C (stereo not given) [LAUROYLCARNITINE] |
| 1.55 | 1.56 | 0.743 | 0.873 | 0.727 | 1.22 | 0.98 | CC(C)CC(N)C(=O)O (stereo not given) [LEUCINE] |
| 8.2 | 8.19 | 7.03 | 7.2 | 7 | 7.75 | 7.45 | NC(Cc1cc(I)c(Oc2ccc(O)c(I)c2)c(I)c1)C(=O)O (stereo not given) [LIOTHYRONINE] |
| 14.4 | 14.4 | 12.4 | 12.7 | 12.4 | 13.7 | 13.1 | CC(CCC(=O)O)C1CCC2C3CCC4CC(O)CCC4(C)C3CCC12C (stereo not given) [LITHOCHOLATE] |
| 11.1 | 11 | 9.6 | 9.86 | 9.62 | 10.5 | 10.2 | CC(CCC(=O)NCCS(=O)(=O)O)C1CCC2C3CCC4CC(O)CCC4(C)C3CCC12C (stereo not given) [LITHOCHOLYLTAURINE] |
| 6.93 | 6.91 | 5.54 | 5.74 | 5.5 | 6.4 | 6.03 | Cc1cc2nc3[nH]c(=O)[nH]c(=O)c3nc2cc1C [LUMICHROME] |
| 4.85 | 4.83 | 2.95 | 3.27 | 2.88 | 4.19 | 3.67 | O=C(O)C(O)c1ccccc1 (stereo not given) [MANDELATE] |
| 7.01 | 7 | 5.53 | 5.75 | 5.49 | 6.46 | 6.06 | COc1ccc2[nH]cc(CCNC(C)=O)c2c1 [MELATONIN] |
| 3.82 | 3.84 | 1.95 | 2.21 | 1.91 | 3.09 | 2.6 | CC(CC(=O)O)CC(=O)O [METHYGLUTARATE] |
